Test results taken from ChEMBL document CHEMBL5346863, “Discovery of substituted benzyloxy-benzylamine inhibitors of acetyltransferase Eis and their anti-mycobacterial activity” (Eur J Med Chem, 2022).
In brackets after ≈: the same amount, converted by molar mass. Activity calls are given as the source filed them. No cut-off for these calls is given here.

Key:
[1] = system: J774.1; assay: Cytotoxicity against mouse J774.1 cells upto 12.5 uM incubated for 24 hrs by resazurin dye based cell viability assay; assay type: toxicity; conditions: j774.1, 24 h
[2] = system: Mycobacterium tuberculosis; assay: Antibacterial activity against Mycobacterium tuberculosis H37Ra assessed as bacterial growth inhibition incubated 2 to 3 weeks by resazurin dye based assay; assay type: functional; conditions: time 2-3 weeks
[3] = system: A549; assay: Cytotoxicity against human A549 cells upto 12.5 uM incubated for 24 hrs by resazurin dye based cell viability assay; assay type: toxicity; conditions: a549, 24 h
[4] = system: HEK293; assay: Cytotoxicity against HEK293 cells upto 12.5 uM incubated for 24 hrs by resazurin dye based cell viability assay; assay type: toxicity; conditions: human, hek293, 24 h
[5] = system: Mycobacterium avium; assay: Antibacterial activity against Mycobacterium avium ATCC 25291 assessed as bacterial growth inhibition incubated for 2 to 3 weeks by resazurin dye based assay; assay type: functional; conditions: time 2-3 weeks
[6] = system: Mycobacterium tuberculosis; assay: Antibacterial activity against Mycobacterium tuberculosis H37Rv assessed as MIC of kanamycin A at 100 uM incubated for 24 hrs followed by kanamycin A addition measured after 6 days by alamarblue dye based assay; assay type: functional; conditions: for Activity: time 7.0 day; for MIC: 168 h, time 7 day
[7] = system: Mycobacterium intracellulare; assay: Antibacterial activity against Mycobacterium intracellulare ATCC 13950 assessed as bacterial growth inhibition incubated for 2 to 3 weeks by resazurin dye based assay; assay type: functional; conditions: time 2-3 weeks
[8] = system: Mycolicibacterium smegmatis; assay: Antibacterial activity against Mycobacterium smegmatis mc2 122 assessed as bacterial growth inhibition incubated for 2 to 3 weeks by resazurin dye based assay; assay type: functional; conditions: time 2-3 weeks
[9] = system: Mycobacterium parascrofulaceum; assay: Antibacterial activity against Mycobacterium parascrofulaceum ATCC BAA-614 assessed as bacterial growth inhibition incubated for 2 to 3 weeks by resazurin dye based assay; assay type: functional; conditions: time 2-3 weeks
[10] = system: Mycobacterium tuberculosis; assay: Antibacterial activity against Mycobacterium tuberculosis mc2 6230 assessed as bacterial growth inhibition incubated 2 to 3 weeks by resazurin dye based assay; assay type: functional; conditions: time 2-3 weeks
[11] = molecular target: T1, N-acetyltransferase Eis (Mycobacterium tuberculosis (strain ATCC 25618 / H37Rv), UniProt P9WFK7); assay: Inhibition of wild-type Mycobacterium tuberculosis Eis expressed in Escherichia coli BL21(DE3) cells incubated for 5 mins by Ellman's method
T1 sequence (P9WFK7 whole entry): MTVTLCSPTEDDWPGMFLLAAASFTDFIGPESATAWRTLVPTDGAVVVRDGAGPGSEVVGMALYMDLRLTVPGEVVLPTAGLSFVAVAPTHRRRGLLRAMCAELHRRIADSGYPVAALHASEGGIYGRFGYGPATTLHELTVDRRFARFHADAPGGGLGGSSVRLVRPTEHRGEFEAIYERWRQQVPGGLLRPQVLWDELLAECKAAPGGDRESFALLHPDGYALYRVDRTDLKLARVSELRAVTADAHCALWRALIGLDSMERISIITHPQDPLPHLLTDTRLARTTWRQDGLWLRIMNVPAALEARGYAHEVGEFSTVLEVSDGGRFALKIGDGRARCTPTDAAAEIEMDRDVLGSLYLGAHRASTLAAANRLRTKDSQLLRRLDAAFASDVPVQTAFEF

[12] = system: Mycobacteroides abscessus; assay: Antibacterial activity against Mycobacterium abscessus ATCC 19977 assessed as bacterial growth inhibition incubated for 2 to 3 weeks by resazurin dye based assay; assay type: functional; conditions: time 2-3 weeks
[13] = system: Mycobacterium tuberculosis; assay: Antibacterial activity against Mycobacterium tuberculosis mc2 6230 assessed as MIC of kanamycin A at 25 uM incubated for 24 hrs followed by kanamycin A addition measured after 6 days by alamarblue dye based assay; assay type: functional; conditions: mc2 6230, 168 h, time 7 day
[14] = system: Mycobacterium tuberculosis; assay: Antibacterial activity against Mycobacterium tuberculosis mc2 6230 K204 assessed as MIC of kanamycin A at 25 uM incubated for 24 hrs followed by kanamycin A addition measured after 6 days by alamarblue dye based assay; assay type: functional; conditions: Mycobacterium tuberculosis, mc2 6230 K204, 168 h, time 7 day, read-out: MIC

Row | SMILES | Activity [1] | MIC [2] [µM] | Activity [3] | Activity [4] | MIC [5] [µM] | Activity [6] | MIC [7] [µM] | MIC [8] [µM] | MIC [9] [µM] | MIC [10] [µM] | IC50 [11] [µM] | MIC [12] [µM] | MIC [6] [µg/mL] | MIC [13] [µM] | MIC [14] [µM]
1 | Clc1ccc(COc2ccccc2CNCc2ccccc2)cc1 | Non-Toxic | 31.3 (≈ 10.6 µg/mL) | Non-Toxic | Non-Toxic | > 62.5 | Active | 31.3 (≈ 10.6 µg/mL) | 31.3 (≈ 10.6 µg/mL) | 31.3 (≈ 10.6 µg/mL) | 50 (≈ 16.9 µg/mL) | 5.4 |  |  |  | 
2 | Fc1ccc(COc2cccc(CNCc3cccnc3)c2)cc1 |  | 62.5 (≈ 20.1 µg/mL) |  |  | > 62.5 |  | > 62.5 | > 62.5 | > 62.5 | 100 (≈ 32.2 µg/mL) | 6.4 | > 62.5 | ≤ 1.25 |  | 
3 | Cc1ccc(COc2ccc(CNCc3ccccc3)cc2)cc1 |  | 15.6 (≈ 4.95 µg/mL) |  |  | 15.6 (≈ 4.95 µg/mL) |  | 15.6 (≈ 4.95 µg/mL) | 1 (≈ 0.317 µg/mL) | 15.6 (≈ 4.95 µg/mL) | 1.56 (≈ 0.495 µg/mL) | > 200 | 31.3 (≈ 9.94 µg/mL) |  |  | 
4 | CC(C)c1ccc(COc2ccc(CNCc3ccccc3)cc2)cc1 |  | ≤ 0.5 |  |  | 15.6 (≈ 5.39 µg/mL) |  | 2 (≈ 0.691 µg/mL) | 3.9 (≈ 1.35 µg/mL) |  | 0.78 (≈ 0.269 µg/mL) | 1.4 | 7.8 (≈ 2.69 µg/mL) |  |  | 
5 | NNC(=O)c1ccncc1 [ISONIAZID] |  |  |  |  | > 31.3 |  | 3.9 (≈ 0.535 µg/mL) | 3.9 (≈ 0.535 µg/mL) | 7.8 (≈ 1.07 µg/mL) |  |  | > 31.3 |  |  | 
6 | Clc1cccc(COc2ccccc2CNCc2ccccc2)c1 | Non-Toxic | 31.3 (≈ 10.6 µg/mL) | Non-Toxic | Non-Toxic | > 62.5 | Active |  | 62.5 (≈ 21.1 µg/mL) |  | 50 (≈ 16.9 µg/mL) | 6.5 | 31.3 (≈ 10.6 µg/mL) |  |  | 
7 | Brc1cccc(COc2ccc(CNCc3ccccc3)cc2)c1 |  | 3.9 (≈ 1.49 µg/mL) |  |  | 31.3 (≈ 12 µg/mL) |  | 3.9 (≈ 1.49 µg/mL) | 2 (≈ 0.765 µg/mL) | 2 (≈ 0.765 µg/mL) | 50 (≈ 19.1 µg/mL) | 2.4 | 31.3 (≈ 12 µg/mL) |  | < 1.25 | ≤ 1.25
8 | c1ccc(COc2ccccc2CNCc2cccnc2)cc1 |  | > 250 |  |  | > 62.5 |  | > 62.5 | > 62.5 | > 62.5 | > 100 | ~50 | > 62.5 | 2.5 |  | 
9 | c1ccc(CNCc2ccc(OCc3ccccc3)cc2)cc1 |  | 62.5 (≈ 19 µg/mL) |  |  | 62.5 (≈ 19 µg/mL) |  | 15.6 (≈ 4.73 µg/mL) |  | 3.9 (≈ 1.18 µg/mL) | 100 (≈ 30.3 µg/mL) | > 200 | > 62.5 |  |  | 
10 | COc1ccc(COc2ccc(CNCc3ccccc3)cc2)cc1 |  | 3.9 (≈ 1.3 µg/mL) |  |  | 31.3 (≈ 10.4 µg/mL) |  |  | 62.5 (≈ 20.8 µg/mL) |  | 12.5 (≈ 4.17 µg/mL) | 12 | 31.3 (≈ 10.4 µg/mL) |  |  | 
11 | c1ccc(COc2ccc(CNCc3cccnc3)cc2)cc1 |  | 31.3 (≈ 9.53 µg/mL) |  |  | 31.3 (≈ 9.53 µg/mL) |  | 31.3 (≈ 9.53 µg/mL) | > 62.5 |  | 100 (≈ 30.4 µg/mL) | ~40 | > 62.5 |  |  | 
12 | Brc1ccc(COc2ccc(CNCc3ccccc3)cc2)cc1 |  | 7.8 (≈ 2.98 µg/mL) |  |  | 62.5 (≈ 23.9 µg/mL) |  | 15.6 (≈ 5.96 µg/mL) | 7.8 (≈ 2.98 µg/mL) | 7.8 (≈ 2.98 µg/mL) | 12.5 (≈ 4.78 µg/mL) | 1.5 | 15.6 (≈ 5.96 µg/mL) |  |  | 
13 | Fc1ccc(COc2cccc(CNCc3ccncc3)c2)cc1 |  | 31.3 (≈ 10.1 µg/mL) |  |  | > 62.5 | Active | > 62.5 | > 62.5 | > 62.5 | 100 (≈ 32.2 µg/mL) | 14 | > 62.5 |  |  | 
14 | c1ccc(CNCc2ccc(OCc3ccc(-c4ccccc4)cc3)cc2)cc1 |  | 2 (≈ 0.759 µg/mL) |  |  | > 62.5 |  | 7.8 (≈ 2.96 µg/mL) |  | 15.6 (≈ 5.92 µg/mL) | 12.5 (≈ 4.74 µg/mL) | > 200 | 7.8 (≈ 2.96 µg/mL) |  |  | 
